Experimental data: patent US20230037448A1, “FLUORINATED QUINOLINE AND QUINOXALINE DERIVATIVES AS DIHYDROOROTATE DEHYDROGENASE (DHODH) INHIBITORS FOR THE TREATMENT OF CANCER, AUTOIMMUNE AND INFLAMMATORY DISEASES” (Janssen Biotech, Inc., priority 2019, published 2023)

Tests used:
human DHODH = biological target: T1, human DHODH (Homo sapiens, UniProt Q02127); experiment: DHODH Enzymatic Assay; format: biochemical; conditions: purified human DHODH; DCIP absorbance, end-point mode
T1 construct: purchased Proteros PR-0044
Experimental: To detect DHODH enzyme activities, dichloroindophenol (DCIP) is added as the final electron acceptor in the assay. DCIP can accept electrons from the reduced coenzyme Q generated in the assay, or from dihydroorotate (DHO) via FMN by binding presumably to the ubiquinone pocket. DCIP solutions are blue, with an intense absorbance around 600 nm, but becomes colorless upon reduction (J. Biol. Chem. (1986) 261, 11386). The assay buffer contained […], pH 7.5, 150 mM NaCl, 0.5 mM EDTA, and 0.1% Triton X-100 in MilliQ water. Substrate consisting of 20 mM DHO, 5 mM CoQ6, and 1 mM DCIP in assay buffer, initiates the reaction. The assay is run in end-point mode by quenching the reaction with the potent DHODH inhibitor brequinar. Absorbance measurements were obtained using the BMG Phera Star plate-reading spectrophotomer. Purified human DHODH was purchased from Proteros (cat. No. PR-0044). Chemicals were purchased from Sigma-Aldrich, Teknova, and Avanti Polar Lipids. Liquid handling was performed using Labcyte Echo and Formulatrix Tempest.

MOLM-13 cells = experiment: MOLM-13 Cellular Assay; format: cell-based; conditions: Homo sapiens, MOLM-13, 72 h, 72 hours exposure, cell viability by CellTiter-Glo
Experimental: MOLM-13 cells were obtained from DSMZ and were maintained in RPMI 1640+Glutamax+25 mM HEPES (Invitrogen, catalog number 72400) supplemented with 10% heat inactivated fetal bovine serum (FBS; Invitrogen, catalog number 16140). The day prior to assay set-up, cells were pelleted, resuspended in fresh media, counted, and cells were plated at 0.4×10^6 cell/mL in a T150 flask. On the day of the assay, cells were pelleted, resuspend in fresh media, counted, and seeded at 5,000 cells/well in white opaque 96-well tissue culture treated microplates (Perkin Elmer, catalog number 6005680). Cells were exposed to different concentrations of test compounds at 37° C., 5% CO2 for 72 hours immediately after seeding. Cell viability was acquired on a Perkin Elmer Envision 2104 multilabel reader using the CellTiter-Glo assay (Promega) according to the manufacturer's instructions.

T1 sequence (Q02127 whole entry): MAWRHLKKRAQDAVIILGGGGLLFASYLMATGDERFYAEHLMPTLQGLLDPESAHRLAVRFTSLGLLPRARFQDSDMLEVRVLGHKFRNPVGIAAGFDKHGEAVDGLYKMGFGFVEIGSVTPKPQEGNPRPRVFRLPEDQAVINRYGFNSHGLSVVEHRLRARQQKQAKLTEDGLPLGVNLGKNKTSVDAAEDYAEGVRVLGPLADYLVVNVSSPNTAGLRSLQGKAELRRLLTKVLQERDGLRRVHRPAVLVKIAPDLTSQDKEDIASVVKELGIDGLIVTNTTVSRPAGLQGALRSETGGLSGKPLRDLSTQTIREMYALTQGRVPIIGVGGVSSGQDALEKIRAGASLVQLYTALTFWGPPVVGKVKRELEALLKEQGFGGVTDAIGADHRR

IC50 (human DHODH) [nM]	IC50 (MOLM-13 cells) [nM]	SMILES
12	> 100	CCn1c(CO)nn(-c2cc3c(C(C)C)cc(-c4c(C)cnc(O)c4C)nc3cc2F)c1=O [Example 19, 4-Ethyl-2-(7-fluoro-2-(2-hydroxy-3,5-dimethylpyridin-4-yl)-4-isopropylauinolin-6-yl)-5-(hydroxymethyl)-2,4-dihydro-3H-1,2,4-triazol-3-one]
730	> 100	CCn1c(CO)nn(-c2cc3c(C(C)C)cc(C4CCOCC4)nc3cc2F)c1=O [Example 20, 4-Ethyl-1-(7-fluoro-4-isopropyl-2-(tetrahydro-2H-pyran-4-yl)quinolin-6-yl)-3-(hydroxymethyl)-1H-1,2,4-triazol-5 (4H)-ene]
4.6	5	CCn1c(CO)nn(-c2cc3c(C(C)C)cc(-c4ccccc4C)[n+]([O-])c3cc2F)c1=O [Example 21, 6-(4-Ethyl-3-(hydroxymethyl)-5-oxo-4,5-dihydro-1H-1,2,4-triazol-1-yl)-7-fluoro-4-isopropyl-2-(o-tolyl)quinoline 1-oxide]
3.9	> 100	CCn1c(CO)nn(-c2cc3c(C(C)C)cc(-c4ccnc(O)c4C)nc3cc2F)c1=O [Example 22, 4-Ethyl-1-(7-fluoro-2-(2-hydroxy-3-methylpyridin-4-yl)-4-isopropylquinolin-6-yl)-3-(hydroxymethyl)-1H-1,2,4-triazol-5 (4H)-one]
14	9	CCn1c(CO)nn(-c2cc3c(C(C)C)cc(-c4c[nH]nc4C(F)(F)F)nc3cc2F)c1=O [Example 23, 4-Ethyl-1-(7-fluoro-4-isopropyl-2-(3-(trifluoromethyl)-pH-pyrazol-4-yl)quinolin-6-yl)-3-(hydroxymethyl)-1H-1,2,4-triazol-5 (4H)-one]
33	> 100	CCn1c(CO)nn(-c2cc3c(C(C)C)cc(-c4cc(O)ncc4C)nc3cc2F)c1=O [Example 24, 4-Ethyl-1-(7-fluoro-2-(2-hydroxy-5-methylpyridin-4-yl)-4-isopropylquinolin-6-yl)-3-(hydroxymethyl)-1H-1,2,4-triazol-5 (4H)-one]
11	6	CCn1c(CO)nn(-c2cc3c(C(C)C)cc(-c4c(Cl)c(O)nn4C)nc3cc2F)c1=O [Example 25, 2-(2-(4-Chloro-3-hydroxy-1-methyl-1H-pyrazol-5-yl)-7-fluoro-4-isopropylquinolin-6-yl)-4-ethyl-5-(hydroxymethyl)-2,4-dihydro-3H-1,2,4-triazol-3-one]
13	7	CCn1c(CO)nn(-c2cc3c(C(C)C)cc(-c4c(Cl)c(OC)nn4C)nc3cc2F)c1=O [Example 26, 2-(2-(4-Chloro-3-methoxy-1-methyl-1H-pyrazol-5-yl)-7-fluoro-4-isopropylauinolin-6-yl)-4-ethyl-5-(hydroxymethyl)-2,4-dihydro-3H-1,2,4-triazol-3-one]
0.7	6	CCn1c(CO)nn(-c2cc3c(C(C)C)cc(-c4c(C(F)(F)F)n[nH]c4Cl)nc3cc2F)c1=O [Example 27, 1-(2-(5-Chloro-3-(trifluoromethyl)-1H-pyrazol-4-yl)-7-fluoro-4-isopropylquinolin-6-yl)-4-ethyl-3-(hydroxymethyl)-1H-1,2,4-triazol-5 (4H)-one]
3	2	Cc1n[nH]c(C(F)(F)F)c1-c1cc(C(C)C)c2cc(-c3nc(CO)n(C)n3)c(F)cc2n1 [Example 28, (3-(7-Fluoro-4-isopropyl-2-(3-methyl-5-(trifluoromethyl)-pH-pyrazol-4-yl)quinolin-6-yl)-1-methyl-1H-1,2,4-triazol-5-yl)methanol]
1	0.36	Cc1n[nH]c(C(F)(F)F)c1-c1cc(C(C)C)c2cc(-c3nc(C(C)O)n(C)n3)c(F)cc2n1 (stereo not drawn) [Example 29, 1-(3-(7-Fluoro-4-isopropyl-2-(3-methyl-5-(trifluoromethyl)-1H-pyrazol-4-yl)quinolin-6-yl)-1-methyl-1H-1,2,4-triazol-5-yl)ethan-1-ol]
1.2	2	Cc1n[nH]c(Cl)c1-c1cc(C(C)C)c2cc(-c3nc(CO)n(C)n3)c(F)cc2n1 [Example 30, (3-(2-(5-Chloro-3-methyl-1H-pyrazol-4-yl)-7-fluoro-4-isopropylauinolin-6-yl)-1-methyl-1H-1,2,4-triazol-5-yl)methanol]
1.6	0.83	Cc1n[nH]c(Cl)c1-c1cc(C(C)C)c2cc(-c3nc(C(C)O)n(C)n3)c(F)cc2n1 (stereo not drawn) [Example 31, 1-(3-(2-(5-Chloro-3-methyl-1H-pyrazol-4-yl)-7-fluoro-4-isopropylauinolin-6-yl)-1-methyl-1H-1,2,4-triazol-5-yl)ethan-1-ol]
1.2	3	Cc1n[nH]c(Cl)c1-c1cc(C(C)C)c2cc(-c3cn(C)c(CO)n3)c(F)cc2n1 [Example 32, (4-(2-(5-Chloro-3-methyl-1H-pyrazol-4-yl)-7-fluoro-4-isopropylauinolin-6-yl)-1-methyl-1H-imidazol-2-yl)methanol]
2	1	Cc1n[nH]c(C(F)(F)F)c1-c1cc(C(C)C)c2cc(-c3cn(C)c(CO)n3)c(F)cc2n1 [Example 33, (4-(7-Fluoro-4-isopropyl-2-(3-methyl-5-(trifluoromethyl)-1H-pyrazol-4-yl)quinolin-6-yl)-1-methyl-1H-imidazol-2-yl)methanol]
5.2	4	CCn1c(CO)nn(-c2cc3c(C(C)C)nc(-c4c(C)n[nH]c4C(F)(F)F)nc3cc2F)c1=O [Example 34, 4-Ethyl-2-(7-fluoro-4-isopropyl-2-(3-methyl-5-(trifluoromethyl)-1H-pyrazol-4-yl)quinazolin-6-yl)-5-(hydroxymethyl)-2,4-dihydro-3H-1,2,4-triazol-3-one]
4.7	4	CCn1c(CO)nn(-c2cc3c(C(C)C)cc(-c4c(C)ccnc4Cl)nc3cc2F)c1=O [Example 35, 1-(2-(2-Chloro-4-methylpyridin-3-yl)-7-fluoro-4-isopropylquinolin-6-yl)-4-ethyl-3-(hydroxymethyl)-1H-1,2,4-triazol-5 (4H)-one]
0.24	0.2	C=C(C)c1cc(-c2ccccc2C)nc2cc(F)c(-n3nc(CO)n(CC)c3=O)cc12 [Example 39, 4-Ethyl-1-(7-fluoro-4-(prop-1-en-2-Yl)-2-(o-tolyl)quinolin-6-yl)-3-(hydroxymethyl)-1H-1,2,4-triazol-5 (4H)-one]
